Laboratory results from the NIST ThermoML archive (doi:10.1021/je050020m).

Assay: xn = mol fraction of the nth substance listed
Conditions: Liquid, Vibrating tube method

CCCCCCCCCC [decane] + O=C=O
Conditions	mass density [kg/m3]
342.87 K, 9030 kPa, x2 = 0.2369	707.28
342.87 K, 10014 kPa, x2 = 0.4536	716.02
342.87 K, 10017 kPa, x2 = 0.2369	708.4
342.87 K, 11019 kPa, x2 = 0.2369	709.54
342.87 K, 11025 kPa, x2 = 0.4536	717.56
342.87 K, 12003 kPa, x2 = 0.2369	710.62
342.87 K, 12015 kPa, x2 = 0.4536	719.02
342.87 K, 13006 kPa, x2 = 0.4536	720.46
342.87 K, 13017 kPa, x2 = 0.2369	711.73
342.87 K, 14013 kPa, x2 = 0.2369	712.79
342.87 K, 14013 kPa, x2 = 0.4536	721.87
342.87 K, 15001 kPa, x2 = 0.4536	723.23
342.87 K, 15021 kPa, x2 = 0.2369	713.84
342.87 K, 16004 kPa, x2 = 0.2369	714.86
342.87 K, 16029 kPa, x2 = 0.4536	724.63
342.87 K, 17018 kPa, x2 = 0.2369	715.9
342.87 K, 17019 kPa, x2 = 0.4536	725.94
342.87 K, 18016 kPa, x2 = 0.2369	716.89
342.87 K, 18026 kPa, x2 = 0.4536	727.26
342.87 K, 19005 kPa, x2 = 0.2369	717.86
342.87 K, 19018 kPa, x2 = 0.4536	728.54
342.87 K, 20000 kPa, x2 = 0.2369	718.83
342.87 K, 20000 kPa, x2 = 0.4536	729.75
342.87 K, 21007 kPa, x2 = 0.4536	731.02
342.87 K, 21023 kPa, x2 = 0.2369	719.83
342.87 K, 22008 kPa, x2 = 0.2369	720.78
342.87 K, 22021 kPa, x2 = 0.4536	732.28
342.87 K, 23029 kPa, x2 = 0.2369	721.76
342.87 K, 23032 kPa, x2 = 0.4536	733.5
342.87 K, 23992 kPa, x2 = 0.2369	722.74
342.87 K, 24017 kPa, x2 = 0.4536	734.7
342.87 K, 25008 kPa, x2 = 0.2369	723.65
342.87 K, 25029 kPa, x2 = 0.4536	735.91
352.75 K, 14010 kPa, x2 = 0.9663	449.95
352.75 K, 15010 kPa, x2 = 0.9663	494.4
352.75 K, 16020 kPa, x2 = 0.9663	532.74
352.75 K, 17024 kPa, x2 = 0.9663	566.61
352.75 K, 18026 kPa, x2 = 0.9663	594.54
352.75 K, 19015 kPa, x2 = 0.9663	618.22
352.75 K, 20016 kPa, x2 = 0.9663	638.64
352.75 K, 21018 kPa, x2 = 0.9663	656.61
352.75 K, 22006 kPa, x2 = 0.9663	672.26
352.75 K, 23021 kPa, x2 = 0.9663	686.58
352.75 K, 24018 kPa, x2 = 0.9663	699.34
352.75 K, 25017 kPa, x2 = 0.9663	710.94
352.76 K, 14034 kPa, x2 = 0.8114	701.72
352.76 K, 15050 kPa, x2 = 0.8114	707.51
352.76 K, 15994 kPa, x2 = 0.8114	712.45
352.76 K, 17009 kPa, x2 = 0.8114	717.35
352.76 K, 18024 kPa, x2 = 0.8114	722.02
352.76 K, 19033 kPa, x2 = 0.8114	726.33
352.76 K, 20039 kPa, x2 = 0.8114	730.42
352.76 K, 21009 kPa, x2 = 0.8114	734.16
352.76 K, 22013 kPa, x2 = 0.8114	737.84
352.76 K, 23004 kPa, x2 = 0.8114	741.32
352.76 K, 24035 kPa, x2 = 0.8114	744.84
352.76 K, 25042 kPa, x2 = 0.8114	748.08
352.78 K, 2008 kPa, x2 = 0.0551	686.89
352.78 K, 3010 kPa, x2 = 0.0551	688.04
352.78 K, 4018 kPa, x2 = 0.0551	689.18
352.78 K, 5014 kPa, x2 = 0.0551	690.28
352.78 K, 6015 kPa, x2 = 0.0551	691.42
352.78 K, 7011 kPa, x2 = 0.0551	692.46
352.78 K, 8024 kPa, x2 = 0.0551	693.62
352.78 K, 8988 kPa, x2 = 0.0551	694.56
352.78 K, 10035 kPa, x2 = 0.0551	695.65
352.78 K, 11021 kPa, x2 = 0.0551	696.68
